We go through 31 molecules from patent publication EP4682145A1, “BENZOHETEROCYCLIC COMPOUND, AND PREPARATION METHOD THEREFOR AND USE THEREOF” (Cascade Pharmaceuticals, Inc., priority 2023, dated 2024).

The test concerns the target T1, human FFAR1 (GPR40) (Homo sapiens, UniProt O14842).
T1 construct: Flag; expressed in transfected cells; host or cells: HEK293T
As to the kind of experiment: NFAT-RE-based reporter gene activity assay (Dual-Glo luciferase) for GPR40 agonistic activity in co-transfected HEK293T cells. The conditions noted are these: 4-hour treatment; for Efficacy (%): class symbols. The class given is cell-based. In short, it runs like this: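 HEK293T cells co-transfected with human FFAR1, NFAT-RE firefly luciferase and TK-Renilla plasmids; 24 h later treated 4 h with 10 half-log compound dilutions from 1 µM. Firefly/Renilla ratio normalised to DMSO; EC50 from four-parameter fit.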
Background: Reporter assays use an easily measured gene product as a stand-in for the process of interest.

Bounds are passed on as bounds.

T1 sequence (O14842 whole entry): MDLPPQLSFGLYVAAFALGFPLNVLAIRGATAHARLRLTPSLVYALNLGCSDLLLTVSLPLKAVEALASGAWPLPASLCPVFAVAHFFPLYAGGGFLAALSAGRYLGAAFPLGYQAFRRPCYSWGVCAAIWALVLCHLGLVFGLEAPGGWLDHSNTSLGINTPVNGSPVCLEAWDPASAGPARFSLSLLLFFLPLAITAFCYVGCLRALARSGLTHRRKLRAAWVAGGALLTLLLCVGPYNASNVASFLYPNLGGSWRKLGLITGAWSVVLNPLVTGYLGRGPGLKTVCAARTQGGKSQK

On to `COc1cccc(N2CCC(c3oc4cc([C@@H](CC(=O)O)C5CC5)ccc4c3C(=O)Nc3ccccc3OC(F)(F)F)CC2)c1` [Compound 240], for which the EC50 is 0.1 to 0.5 µM and the “Efficacy (%)” value is reported as “†† (150 ≥ Efficacy (%) > 100)”.

Turning to `COc1cccc(N2CCC(c3oc4cc([C@@H](CC(=O)O)C5CC5)ccc4c3C(=O)Nc3ccccc3-c3ccccc3)CC2)c1` [Compound 241], the half-maximal effective concentration (EC50) fell in the range of 0.1 to 0.5 µM and the “Efficacy (%)” value was “†† (150 ≥ Efficacy (%) > 100)”.

In the case of `COc1cccc(N2CCC(c3oc4cc([C@@H](CC(=O)O)C5CC5)ccc4c3C(=O)Nc3cccc(C)c3)CC2)c1` [Compound 242], the EC50 lay in the range of 0.1 to 0.5 µM and the “Efficacy (%)” value is given as “†† (150 ≥ Efficacy (%) > 100)”.

Regarding `CCc1cccc(NC(=O)c2c(C3CCN(c4cccc(OC)c4)CC3)oc3cc(C(CC(=O)O)C4CC4)ccc23)c1` (centres unmarked) [Compound 243], the EC50 is over 0.5 µM and the “Efficacy (%)” value is recorded as “†† (150 ≥ Efficacy (%) > 100)”.

Turning to `COc1cccc(NC(=O)c2c(C3CCN(c4cccc(OC)c4)CC3)oc3cc(C(CC(=O)O)C4CC4)ccc23)c1` (centres unmarked) [Compound 245], the EC50 lay in the range of 0.1 to 0.5 µM and the “Efficacy (%)” value is “†† (150 ≥ Efficacy (%) > 100)”.

As to `COc1cccc(N2CCC(c3oc4cc(C(CC(=O)O)C5CC5)ccc4c3C(=O)Nc3cccc(N(C)C)c3)CC2)c1` (centres unmarked) [Compound 246], the EC50 was in the range of 0.1 to 0.5 µM and the “Efficacy (%)” value is recorded as “†† (150 ≥ Efficacy (%) > 100)”.

`COc1cccc(N2CCC(c3oc4cc(C(CC(=O)O)C5CC5)ccc4c3C(=O)Nc3cccc(Br)c3)CC2)c1` (centres unmarked) [Compound 247]: the EC50 is 0.1 to 0.5 µM and the “Efficacy (%)” value is listed as “††† (Efficacy (%) > 150)”.

As to `COc1cccc(N2CCC(c3oc4cc(C(CC(=O)O)C5CC5)ccc4c3C(=O)Nc3cccc(Cl)c3)CC2)c1` (centres unmarked) [Compound 248], the EC50 was 0.1 to 0.5 µM and the “Efficacy (%)” value is reported as “†† (150 ≥ Efficacy (%) > 100)”.

As for `COc1cccc(N2CCC(c3oc4cc(C(CC(=O)O)C5CC5)ccc4c3C(=O)Nc3cccc(C#N)c3)CC2)c1` (centres unmarked) [Compound 249], the EC50 lay in the range of 0.1 to 0.5 µM and the “Efficacy (%)” value is on record as “†† (150 ≥ Efficacy (%) > 100)”.

Regarding `COc1cccc(N2CCC(c3oc4cc(C(CC(=O)O)C5CC5)ccc4c3C(=O)Nc3cccc(C)c3F)CC2)c1` (centres unmarked) [Compound 250], the EC50 was in the range of 0.1 to 0.5 µM and the “Efficacy (%)” value is listed as “†† (150 ≥ Efficacy (%) > 100)”.

Turning to `COc1cccc(N2CCC(c3oc4cc(C(CC(=O)O)C5CC5)ccc4c3C(=O)Nc3ccc(C)cc3F)CC2)c1` (centres unmarked) [Compound 251], the EC50 lay within 0.1 to 0.5 µM and the “Efficacy (%)” value is “†† (150 ≥ Efficacy (%) > 100)”.

For the molecule `COc1cccc(N2CCC(c3oc4cc(C(CC(=O)O)C5CC5)ccc4c3C(=O)Nc3c(C)cccc3F)CC2)c1` (centres unmarked) [Compound 252], the concentration giving a half-maximal response (EC50) lay within 0.1 to 0.5 µM and the “Efficacy (%)” value is “†† (150 ≥ Efficacy (%) > 100)”.

With `COc1cccc(N2CCC(c3oc4cc([C@@H](CC(=O)O)C5CC5)ccc4c3C(=O)Nc3cc(C)ccc3F)CC2)c1` [Compound 253], the EC50 was at most 0.01 µM and the “Efficacy (%)” value is listed as “††† (Efficacy (%) > 150)”.

Take `COc1cccc(N2CCC(c3oc4cc(C(CC(=O)O)C5CC5)ccc4c3C(=O)Nc3cccc(F)c3F)CC2)c1` (centres unmarked) [Compound 254]: the EC50 is 0.1 to 0.5 µM and the “Efficacy (%)” value is “††† (Efficacy (%) > 150)”.

With `COc1cccc(N2CCC(c3oc4cc(C(CC(=O)O)C5CC5)ccc4c3C(=O)Nc3ccc(F)cc3F)CC2)c1` (centres unmarked) [Compound 255], the EC50 was 0.1 to 0.5 µM and the “Efficacy (%)” value is reported as “†† (150 ≥ Efficacy (%) > 100)”.

With `COc1cccc(N2CCC(c3oc4cc(C(CC(=O)O)C5CC5)ccc4c3C(=O)Nc3c(F)cccc3F)CC2)c1` (centres unmarked) [Compound 256], the EC50 lay within 0.1 to 0.5 µM and the “Efficacy (%)” value is reported as “††† (Efficacy (%) > 150)”.

On to `COc1cccc(N2CCC(c3oc4cc([C@@H](CC(=O)O)C5CC5)ccc4c3C(=O)Nc3cc(F)ccc3F)CC2)c1` [Compound 257], for which the EC50 is at most 0.01 µM and the “Efficacy (%)” value was “††† (Efficacy (%) > 150)”.

Regarding `COc1cccc(N2CCC(c3oc4cc(C(CC(=O)O)C5CC5)ccc4c3C(=O)Nc3cccc(OC)c3F)CC2)c1` (centres unmarked) [Compound 258], the EC50 was in the range of 0.1 to 0.5 µM and the “Efficacy (%)” value is “††† (Efficacy (%) > 150)”.

With `COc1cccc(N2CCC(c3oc4cc(C(CC(=O)O)C5CC5)ccc4c3C(=O)Nc3c(F)cccc3OC)CC2)c1` (centres unmarked) [Compound 259], the EC50 is over 0.5 µM and the “Efficacy (%)” value is “†† (150 ≥ Efficacy (%) > 100)”.

For the molecule `COc1cccc(N2CCC(c3oc4cc([C@@H](CC(=O)O)C5CC5)ccc4c3C(=O)Nc3cc(OC)ccc3F)CC2)c1` [Compound 260], the EC50 lay in the range of 0.01 to 0.1 µM and the “Efficacy (%)” value is recorded as “††† (Efficacy (%) > 150)”.

For the molecule `COc1cccc(N2CCC(c3oc4cc([C@@H](CC(=O)O)C5CC5)ccc4c3C(=O)Nc3cc(C(F)(F)F)ccc3F)CC2)c1` [Compound 261], the EC50 is at most 0.01 µM and the “Efficacy (%)” value was “††† (Efficacy (%) > 150)”.

As to `COc1cccc(N2CCC(c3oc4cc([C@@H](CC(=O)O)C5CC5)ccc4c3C(=O)Nc3cc(OC(F)(F)F)ccc3F)CC2)c1` [Compound 262], the EC50 is under 0.01 µM and the “Efficacy (%)” value is reported as “†† (150 ≥ Efficacy (%) > 100)”.

For `COc1cccc(N2CCC(c3oc4cc(C(CC(=O)O)C5CC5)ccc4c3C(=O)Nc3c(F)cccc3C(F)(F)F)CC2)c1` (centres unmarked) [Compound 263], the EC50 was in the range of 0.1 to 0.5 µM and the “Efficacy (%)” value is “†† (150 ≥ Efficacy (%) > 100)”.

In the case of `COc1cccc(N2CCC(c3oc4cc(C(CC(=O)O)C5CC5)ccc4c3C(=O)Nc3c(F)cccc3Br)CC2)c1` (centres unmarked) [Compound 264], the EC50 lay within 0.1 to 0.5 µM and the “Efficacy (%)” value is recorded as “†† (150 ≥ Efficacy (%) > 100)”.

Consider `COc1cccc(N2CCC(c3oc4cc([C@@H](CC(=O)O)C5CC5)ccc4c3C(=O)Nc3cc(C)ccc3Cl)CC2)c1` [Compound 265], for which the EC50 was at most 0.01 µM and the “Efficacy (%)” value was “††† (Efficacy (%) > 150)”.

On to `COc1cccc(N2CCC(c3oc4cc([C@@H](CC(=O)O)C5CC5)ccc4c3C(=O)Nc3cc(F)ccc3Cl)CC2)c1` [Compound 266], for which the EC50 was under 0.01 µM and the “Efficacy (%)” value is reported as “††††”.

With `COc1cccc(N2CCC(c3oc4cc([C@@H](CC(=O)O)C5CC5)ccc4c3C(=O)Nc3cc(Cl)ccc3Cl)CC2)c1` [Compound 267], the 50% effective concentration (EC50) was at most 0.01 µM and the “Efficacy (%)” value is given as “††† (Efficacy (%) > 150)”.

For the molecule `COc1cccc(N2CCC(c3oc4cc([C@@H](CC(=O)O)C5CC5)ccc4c3C(=O)Nc3cc(OC)ccc3Cl)CC2)c1` [Compound 268], the 50% effective concentration (EC50) is at most 0.01 µM and the “Efficacy (%)” value was “†† (150 ≥ Efficacy (%) > 100)”.

With `COc1cccc(N2CCC(c3oc4cc([C@@H](CC(=O)O)C5CC5)ccc4c3C(=O)Nc3cc(C)ccc3C)CC2)c1` [Compound 269], the concentration for a half-maximal effect (EC50) was 0.01 to 0.1 µM and the “Efficacy (%)” value is listed as “††† (Efficacy (%) > 150)”.

For the molecule `COc1cccc(N2CCC(c3oc4cc([C@@H](CC(=O)O)C5CC5)ccc4c3C(=O)Nc3cc(Cl)ccc3F)CC2)c1` [Compound 270], the EC50 is 0.01 to 0.1 µM and the “Efficacy (%)” value is on record as “††††”.

Take `COc1cccc(N2CCC(c3oc4cc([C@@H](CC(=O)O)C5CC5)ccc4c3C(=O)Nc3cc(F)ccc3Br)CC2)c1` [Compound 271]: the EC50 is at most 0.01 µM and the “Efficacy (%)” value was “††† (Efficacy (%) > 150)”.

Broadly, the EC50 is the concentration that produces a half-maximal response.
